This note sets out measurements from patent US4382889A, “Epoxysuccinic acid derivatives” (Taisho Pharmaceutical Co., Ltd., priority 1979, dated 1983).

Structures can show the parent of a compound that is named as a salt.

Data set [1] has as its target T1, calcium-activated neutral thiolprotease (CANP) (Gallus gallus, UniProt P00789).
T1 construct: CANP prepared from a muscle of hereditary muscular dystrophy chicken; from tissue; host or cells: muscle of hereditary muscular dystrophy chicken
T1 sequence (P00789 1-705): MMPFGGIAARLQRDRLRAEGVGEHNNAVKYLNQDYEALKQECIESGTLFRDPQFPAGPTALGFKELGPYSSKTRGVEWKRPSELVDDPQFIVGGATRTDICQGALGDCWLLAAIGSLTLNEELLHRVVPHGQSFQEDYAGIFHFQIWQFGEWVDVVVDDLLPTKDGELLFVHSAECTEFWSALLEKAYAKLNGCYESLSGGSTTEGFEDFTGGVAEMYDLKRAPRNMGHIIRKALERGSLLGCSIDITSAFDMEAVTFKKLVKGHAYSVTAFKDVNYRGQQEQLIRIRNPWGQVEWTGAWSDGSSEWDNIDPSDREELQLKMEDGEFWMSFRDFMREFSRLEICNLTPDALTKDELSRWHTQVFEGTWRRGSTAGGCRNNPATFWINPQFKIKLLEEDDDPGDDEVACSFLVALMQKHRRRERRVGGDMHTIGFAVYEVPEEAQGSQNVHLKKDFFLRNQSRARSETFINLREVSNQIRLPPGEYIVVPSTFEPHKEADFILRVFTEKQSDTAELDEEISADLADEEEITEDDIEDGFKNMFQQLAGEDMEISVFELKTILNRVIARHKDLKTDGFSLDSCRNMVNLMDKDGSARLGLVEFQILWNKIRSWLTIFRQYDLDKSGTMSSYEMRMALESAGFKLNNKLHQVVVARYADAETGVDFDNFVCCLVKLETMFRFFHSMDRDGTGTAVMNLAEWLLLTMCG
Nature of the data set: CANP inhibitory activity (method of Ishiura et al). The format is biochemical. Conditions: 50% inhibition as molar ratio to the enzyme; CANP from muscle of hereditary muscular dystrophy chicken. As for the experimental part:
Their muscular dystrophy inhibitory activity was assayed by the method of Ishiura et al, [J. of Biochem., 84, 225(1978)] using CANP prepared from a muscle of hereditary muscular dystrophy chicken, and the resulting value for 50% inhibition in the molar ratios for the enzyme expressed as ID50 (mole/mole) is shown in Table 1.

The target in a further data set is T2, papain (Carica papaya, UniProt P00784).
T2 construct: purchased Sigma Chem. Co
T2 sequence (P00784 134-345): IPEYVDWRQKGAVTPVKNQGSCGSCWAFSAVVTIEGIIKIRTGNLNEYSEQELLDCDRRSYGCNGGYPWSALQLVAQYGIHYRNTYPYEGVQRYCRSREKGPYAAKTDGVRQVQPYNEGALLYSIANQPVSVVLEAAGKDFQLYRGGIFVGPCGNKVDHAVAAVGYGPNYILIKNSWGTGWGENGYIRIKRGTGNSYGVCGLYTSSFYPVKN
The data set can be described thus: Papain inhibitory activity (method of K. Hanada et al). Conditions: papain 80 ug/ml, Sigma, 2 x cry. It counts as biochemical. The method, then:
Papain inhibitory activity of the compounds of the present invention was assayed by the method of K. Hanada et al, [Argric. Biol. Chem., 42, No. 3, 523(1978)] using papain (80 ug/ml, Sigma Chem. Co., 2 x cry.).

Data set [2] in a line: Concentration of test compound in rat plasma after subcutaneous administration. The format is in vivo. The settings on record: sc, 50 mg/kg, an hour after administration. As for the experimental part:
The compounds of the present invention are better absorbed by the subcutaneous route in mammals such as rats or rabbits, as compared with the epoxysuccinic acid derivatives of the German Patent Laid Open Application described above and Chemical Abstracts, 87, 68129a (1977). To determine absorption, these compounds were administered subcutaneously to rat at a dose of 50 mg/kg, and the concentration of the test compound in rat plasma at an hour after the administration was shown in Table 1.

Take `CC[C@H](C)[C@H](NC(=O)C1OC1C(=O)OCc1ccccc1)C(=O)N(C)Cc1ccccc1` (mixture of isomers) [Compound 12, N-[N'-(DL-3-trans-benzyloxycarbonyloxirane-2-carbonyl)-L-isoleucyl]-N-methylbenzylamine]: the “CANP Inhibitory Activity ID50 (mole/mole)” value in data set [1] is 65 mole/mole. Also, the “Papain ID50 (amount of inhibitor for 50% inhibition)” value on papain was 0.260 µg. Moreover, the concentration at 1 h in data set [2] amounted to 1300 ng/mL.
As to `CC(C)C[C@H](NC(=O)C1OC1C(=O)O)C(=O)NC(C)C` (mixture of isomers) [Compound 15, N-[N'-(DL-3-trans-carboxyoxirane-2-carbonyl)-L-leucyl]isopropylamine potassium salt], the “CANP Inhibitory Activity ID50 (mole/mole)” value in data set [1] was determined as 35 mole/mole. Moreover, the “Papain ID50 (amount of inhibitor for 50% inhibition)” value on papain turned out to be 0.112 µg. Further, the concentration at 1 h in data set [2] turned out to be 20000 ng/mL.
As for `CC(C)C[C@H](NC(=O)C1OC1C(=O)O)C(=O)NCCc1ccccc1` (mixture of isomers) [Compound 16, N-[N'-(DL-3-trans-carboxyoxirane-2-carbonyl)-L-leucyl]phenethylamine potassium salt], in data set [1], the “CANP Inhibitory Activity ID50 (mole/mole)” value is 90 mole/mole. In addition, the “Papain ID50 (amount of inhibitor for 50% inhibition)” value on papain was 0.123 µg. In data set [2], this molecule had a concentration at 1 h of 12000 ng/mL.
As for `COC(=O)[C@@H]1CCCN1C(=O)[C@H](CC(C)C)NC(=O)C1OC1C(=O)OCc1ccccc1` (mixture of isomers) [Compound 19, N-(DL-3-trans-benzyloxycarbonyloxirane-2-carbonyl)-L-leucyl-L-proline methyl ester], in data set [1], the “CANP Inhibitory Activity ID50 (mole/mole)” value came to 23 mole/mole. In addition, the “Papain ID50 (amount of inhibitor for 50% inhibition)” value at papain amounted to 0.123 µg. In data set [2], this molecule showed a concentration at 1 h of 1500 ng/mL.
With `CC(C)C[C@H](NC(=O)C1OC1C(=O)OCc1ccccc1)C(=O)N[C@@H](CCCNC(=O)OCc1ccccc1)C(=O)OCc1ccccc1` (mixture of isomers) [Compound 30, N-(DL-3-trans-benzyloxycarbonyloxirane-2-carbonyl)-L-leucyl-δ-carbobenzoxy-L-ornithine benzyl ester], in data set [1], the “CANP Inhibitory Activity ID50 (mole/mole)” value amounted to 100 mole/mole. Besides, at papain, the “Papain ID50 (amount of inhibitor for 50% inhibition)” value came out at 0.391 µg. For the same molecule, in data set [2], the concentration at 1 h came to 2000 ng/mL.
For the molecule `COC(=O)[C@H](CCCN=C(N)N)NC(=O)[C@H](CC(C)C)NC(=O)C1OC1C(=O)O` (mixture of isomers) [Compound 43, N-(DL-3-transcarboxyoxirane-2-carbonyl)-L-leucyl-L-arginine methyl ester], in data set [1], the “CANP Inhibitory Activity ID50 (mole/mole)” value is recorded as 100 mole/mole. For the same molecule, the “Papain ID50 (amount of inhibitor for 50% inhibition)” value on papain is 0.195 µg. Also, the concentration at 1 h in data set [2] stood at 7000 ng/mL.
The matching figures for `CC(C)C[C@H](NC(=O)[C@H](CC(C)C)NC(=O)C1OC1C(=O)O)C(=O)O` (mixture of isomers) [Compound 45, N-(DL-3-trans-carboxyoxirane-2-carbonyl)-L-leucyl-L-leucine]: 64 mole/mole, 0.236 µg and 15000 ng/mL.
As to `CCOC(=O)[C@H]1O[C@@H]1C(=O)O` (relative stereo) [A, Ethyl hydrogen epoxysuccinate, reference compound], the “CANP Inhibitory Activity ID50 (mole/mole)” value in data set [1] is 5,400 mole/mole. This molecule yielded a concentration at 1 h in data set [2] of under 1000 ng/mL.
The matching figures for `O=C(O)[C@H]1O[C@@H]1C(=O)OCc1ccccc1` (relative stereo) [B, Benzyl hydrogen epoxysuccinate, reference compound]: 410 mole/mole and under 1000 ng/mL.
In the case of `CCOC(=O)C1OC1C(=O)N[C@@H](CC(C)C)C(=O)OCc1ccccc1` (stereo partly drawn) [C, N--(3ethoxy-carbonyloxirane-2-carbonyl)-L-leucine benzyl ester, reference compound], the “CANP Inhibitory Activity ID50 (mole/mole)” value in data set [1] turned out to be 580 mole/mole. Besides, in data set [2], the concentration at 1 h is under 1000 ng/mL.
Consider `COC(=O)[C@H](CC(C)C)NC(=O)[C@H](Cc1ccccc1)NC(=O)C1OC1C(=O)OCc1ccccc1` (stereo partly drawn) [Compound 36], for which, in data set [1], the “CANP Inhibitory Activity ID50 (mole/mole)” value stood at 200 mole/mole. Further, the “Papain ID50 (amount of inhibitor for 50% inhibition)” value on papain worked out at 0.595 µg. Moreover, the concentration at 1 h in data set [2] was 1800 ng/mL.
`CCOC(=O)CNC(=O)[C@@H](NC(=O)C1OC1C(=O)OCc1ccccc1)C(C)CC` (stereo partly drawn) [Compound 40]: the “Papain ID50 (amount of inhibitor for 50% inhibition)” value at papain was found to be 0.481 µg.
With `CCC(C)[C@H](NC(=O)C1OC1C(=O)OCc1ccccc1)C(=O)N[C@H](C(=O)OC)C(C)C` (stereo partly drawn) [Compound 41], at papain, the “Papain ID50 (amount of inhibitor for 50% inhibition)” value was 0.272 µg.
With `COC(=O)[C@H](C)NC(=O)[C@@H](NC(=O)C1OC1C(=O)OCc1ccccc1)C(C)C` (stereo partly drawn) [Compound 42], in data set [1], the “CANP Inhibitory Activity ID50 (mole/mole)” value came out at 120 mole/mole. Besides, the “Papain ID50 (amount of inhibitor for 50% inhibition)” value on papain is 0.595 µg. In addition, the concentration at 1 h in data set [2] came out at 1100 ng/mL.
Take `O=C(O)C1OC1C(=O)N[C@@H](Cc1ccccc1)C(=O)OCc1ccccc1` (stereo partly drawn) [D, N--(3carboxyoxirane-2-carbonyl)-L-phenylalanine benzyl ester, reference compound]: in data set [1], the “CANP Inhibitory Activity ID50 (mole/mole)” value came out at 574 mole/mole. For the same molecule, the concentration at 1 h in data set [2] was under 1000 ng/mL.
On the same counts, the results for `CC(C)C[C@H](NC(=O)C1OC1C(=O)O)C(=O)O` (stereo partly drawn) [E, N--(3carboxyoxirane-2-carbonyl)-L-leucine, reference compound] are 4,600 mole/mole and under 1000 ng/mL.
